Common to all, as to assay: biochemical
Holding throughout (set-up): Eurofins KinaseProfiler full panel at Km ATP, residual kinase activity (%) relative to DMSO

One assay deals with Blk(m) (Mus musculus, UniProt P16277). In short, it runs like this:
(§1)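 Radiometric kinase activity assays were run with ATP at Km and compounds at 10 µM, and remaining activity (%) was reported. A separate competitive binding screen measured DNA-tagged kinase displaced from immobilized active-site ligands by qPCR, giving percent kinase still bound at 10 µM compound in DMSO.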

For a further assay, the target named is T1, GSK3β(h) (Homo sapiens, UniProt P49841).
T1 construct: gene GSK3B
A digest of the protocol:
as §1

The target in another assay is DAPK1(h) (Homo sapiens, UniProt P53355). In short, it runs like this: as §1
Another assay addresses CDKL4(h) (Homo sapiens, UniProt Q5MAI5). A digest of the protocol:
as §1

For another assay, the target named is T2, PKG1α(h) (Homo sapiens, UniProt Q13976).
T2 construct: gene PRKG1; isoform 1alpha
T2 sequence (Q13976 1-671): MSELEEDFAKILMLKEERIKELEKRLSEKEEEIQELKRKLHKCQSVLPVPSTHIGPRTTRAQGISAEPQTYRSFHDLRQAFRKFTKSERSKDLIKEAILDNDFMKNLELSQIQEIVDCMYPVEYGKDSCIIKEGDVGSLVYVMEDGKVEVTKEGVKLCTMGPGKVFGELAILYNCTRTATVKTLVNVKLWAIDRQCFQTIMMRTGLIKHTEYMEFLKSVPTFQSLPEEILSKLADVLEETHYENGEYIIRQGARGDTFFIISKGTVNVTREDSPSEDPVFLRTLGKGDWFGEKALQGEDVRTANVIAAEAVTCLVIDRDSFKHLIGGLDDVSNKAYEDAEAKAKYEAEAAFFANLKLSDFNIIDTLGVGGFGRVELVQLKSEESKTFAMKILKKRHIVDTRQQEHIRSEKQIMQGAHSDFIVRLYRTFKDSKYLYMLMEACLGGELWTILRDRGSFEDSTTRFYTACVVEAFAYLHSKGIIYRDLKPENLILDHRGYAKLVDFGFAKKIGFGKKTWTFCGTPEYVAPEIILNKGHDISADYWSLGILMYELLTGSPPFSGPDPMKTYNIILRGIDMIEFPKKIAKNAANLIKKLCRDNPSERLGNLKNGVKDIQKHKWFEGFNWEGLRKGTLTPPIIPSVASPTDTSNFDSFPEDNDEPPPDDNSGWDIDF
A digest of the protocol: as §1

In another assay the target is T3, Aurora-C(h) (Homo sapiens, UniProt Q9UQB9).
T3 construct: gene AURKC
T3 sequence (Q9UQB9 1-309): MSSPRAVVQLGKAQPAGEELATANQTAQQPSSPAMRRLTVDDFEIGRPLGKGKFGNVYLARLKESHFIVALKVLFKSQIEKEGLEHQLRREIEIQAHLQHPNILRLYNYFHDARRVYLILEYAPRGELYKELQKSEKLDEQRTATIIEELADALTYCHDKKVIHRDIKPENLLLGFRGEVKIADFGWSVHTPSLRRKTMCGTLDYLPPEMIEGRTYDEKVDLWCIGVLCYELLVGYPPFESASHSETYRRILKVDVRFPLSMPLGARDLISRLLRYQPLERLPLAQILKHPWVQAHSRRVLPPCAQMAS
A digest of the protocol: as §1

In another assay the target is T4, NUAK2(h) (Homo sapiens, UniProt Q9H093).
T4 sequence (Q9H093 1-628): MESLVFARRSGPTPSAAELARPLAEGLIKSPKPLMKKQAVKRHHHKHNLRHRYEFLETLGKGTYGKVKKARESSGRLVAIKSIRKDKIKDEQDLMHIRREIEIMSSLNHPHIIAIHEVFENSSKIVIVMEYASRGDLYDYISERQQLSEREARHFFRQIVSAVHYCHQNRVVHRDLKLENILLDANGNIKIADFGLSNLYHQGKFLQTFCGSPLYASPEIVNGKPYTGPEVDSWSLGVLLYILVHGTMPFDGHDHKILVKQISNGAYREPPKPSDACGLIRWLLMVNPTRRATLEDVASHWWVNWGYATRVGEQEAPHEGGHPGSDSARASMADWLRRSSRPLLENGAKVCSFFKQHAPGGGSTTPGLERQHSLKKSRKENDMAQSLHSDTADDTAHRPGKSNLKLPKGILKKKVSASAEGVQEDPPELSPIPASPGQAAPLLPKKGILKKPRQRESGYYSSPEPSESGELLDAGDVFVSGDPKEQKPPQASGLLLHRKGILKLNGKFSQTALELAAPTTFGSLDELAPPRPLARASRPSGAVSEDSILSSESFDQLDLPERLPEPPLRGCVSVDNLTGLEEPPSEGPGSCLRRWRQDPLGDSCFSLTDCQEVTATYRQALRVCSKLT
In short, it runs like this:
as §1

[1] abbreviates: read-out: Residual activity (%) Spautin-1 5aa.
Setting [2] is: read-out: Residual activity (%) 5as.
[3] abbreviates: read-out: Residual activity (%) 5at.
The mark [4] stands for this setting: read-out: Residual activity (%) 5ay.

Structures are written as SMILES. Like-named read-outs stand apart in the source and are kept apart here.

The text below walks through data of publication PMC7827406, “Structure–Activity Relationship (SAR) Study of Spautin-1 to Entail the Discovery of Novel NEK4 Inhibitors” (International Journal of Molecular Sciences, 2021).

CDKL4(h), sequence (Q5MAI5 whole entry): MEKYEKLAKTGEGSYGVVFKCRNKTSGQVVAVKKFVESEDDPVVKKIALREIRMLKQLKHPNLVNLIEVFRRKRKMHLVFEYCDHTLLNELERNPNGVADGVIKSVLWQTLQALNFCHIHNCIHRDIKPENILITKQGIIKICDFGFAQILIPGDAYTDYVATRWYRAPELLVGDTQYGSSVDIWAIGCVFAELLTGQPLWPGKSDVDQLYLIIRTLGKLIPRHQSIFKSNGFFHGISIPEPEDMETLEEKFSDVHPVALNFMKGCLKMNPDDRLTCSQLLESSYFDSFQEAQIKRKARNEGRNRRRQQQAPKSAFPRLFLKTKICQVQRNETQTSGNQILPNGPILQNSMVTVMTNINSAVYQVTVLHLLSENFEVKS
Blk(m), sequence (P16277 whole entry): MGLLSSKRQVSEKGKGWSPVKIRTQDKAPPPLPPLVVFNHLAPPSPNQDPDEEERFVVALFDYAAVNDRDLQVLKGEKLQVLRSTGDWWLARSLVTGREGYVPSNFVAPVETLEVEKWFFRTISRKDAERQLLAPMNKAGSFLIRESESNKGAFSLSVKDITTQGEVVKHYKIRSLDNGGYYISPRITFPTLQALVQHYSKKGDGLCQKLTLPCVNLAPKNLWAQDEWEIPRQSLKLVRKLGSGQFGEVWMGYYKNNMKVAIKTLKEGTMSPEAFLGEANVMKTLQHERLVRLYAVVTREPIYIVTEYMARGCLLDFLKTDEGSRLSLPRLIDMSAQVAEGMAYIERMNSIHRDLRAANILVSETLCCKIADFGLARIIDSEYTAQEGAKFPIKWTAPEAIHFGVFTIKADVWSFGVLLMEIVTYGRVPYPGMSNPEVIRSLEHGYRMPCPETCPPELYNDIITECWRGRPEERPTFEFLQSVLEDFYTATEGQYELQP
T1 sequence (P49841 whole entry): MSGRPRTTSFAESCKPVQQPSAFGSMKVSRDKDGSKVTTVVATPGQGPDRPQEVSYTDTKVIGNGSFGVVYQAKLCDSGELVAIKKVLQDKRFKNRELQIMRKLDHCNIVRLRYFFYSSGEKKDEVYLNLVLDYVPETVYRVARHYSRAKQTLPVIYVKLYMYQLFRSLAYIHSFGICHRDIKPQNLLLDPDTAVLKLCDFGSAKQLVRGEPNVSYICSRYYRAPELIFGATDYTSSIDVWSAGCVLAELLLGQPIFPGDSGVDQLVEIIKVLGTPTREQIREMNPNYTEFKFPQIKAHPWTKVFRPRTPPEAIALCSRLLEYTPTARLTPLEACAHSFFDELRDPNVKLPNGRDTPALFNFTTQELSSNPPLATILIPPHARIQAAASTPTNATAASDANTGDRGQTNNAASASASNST
DAPK1(h), sequence (P53355 whole entry): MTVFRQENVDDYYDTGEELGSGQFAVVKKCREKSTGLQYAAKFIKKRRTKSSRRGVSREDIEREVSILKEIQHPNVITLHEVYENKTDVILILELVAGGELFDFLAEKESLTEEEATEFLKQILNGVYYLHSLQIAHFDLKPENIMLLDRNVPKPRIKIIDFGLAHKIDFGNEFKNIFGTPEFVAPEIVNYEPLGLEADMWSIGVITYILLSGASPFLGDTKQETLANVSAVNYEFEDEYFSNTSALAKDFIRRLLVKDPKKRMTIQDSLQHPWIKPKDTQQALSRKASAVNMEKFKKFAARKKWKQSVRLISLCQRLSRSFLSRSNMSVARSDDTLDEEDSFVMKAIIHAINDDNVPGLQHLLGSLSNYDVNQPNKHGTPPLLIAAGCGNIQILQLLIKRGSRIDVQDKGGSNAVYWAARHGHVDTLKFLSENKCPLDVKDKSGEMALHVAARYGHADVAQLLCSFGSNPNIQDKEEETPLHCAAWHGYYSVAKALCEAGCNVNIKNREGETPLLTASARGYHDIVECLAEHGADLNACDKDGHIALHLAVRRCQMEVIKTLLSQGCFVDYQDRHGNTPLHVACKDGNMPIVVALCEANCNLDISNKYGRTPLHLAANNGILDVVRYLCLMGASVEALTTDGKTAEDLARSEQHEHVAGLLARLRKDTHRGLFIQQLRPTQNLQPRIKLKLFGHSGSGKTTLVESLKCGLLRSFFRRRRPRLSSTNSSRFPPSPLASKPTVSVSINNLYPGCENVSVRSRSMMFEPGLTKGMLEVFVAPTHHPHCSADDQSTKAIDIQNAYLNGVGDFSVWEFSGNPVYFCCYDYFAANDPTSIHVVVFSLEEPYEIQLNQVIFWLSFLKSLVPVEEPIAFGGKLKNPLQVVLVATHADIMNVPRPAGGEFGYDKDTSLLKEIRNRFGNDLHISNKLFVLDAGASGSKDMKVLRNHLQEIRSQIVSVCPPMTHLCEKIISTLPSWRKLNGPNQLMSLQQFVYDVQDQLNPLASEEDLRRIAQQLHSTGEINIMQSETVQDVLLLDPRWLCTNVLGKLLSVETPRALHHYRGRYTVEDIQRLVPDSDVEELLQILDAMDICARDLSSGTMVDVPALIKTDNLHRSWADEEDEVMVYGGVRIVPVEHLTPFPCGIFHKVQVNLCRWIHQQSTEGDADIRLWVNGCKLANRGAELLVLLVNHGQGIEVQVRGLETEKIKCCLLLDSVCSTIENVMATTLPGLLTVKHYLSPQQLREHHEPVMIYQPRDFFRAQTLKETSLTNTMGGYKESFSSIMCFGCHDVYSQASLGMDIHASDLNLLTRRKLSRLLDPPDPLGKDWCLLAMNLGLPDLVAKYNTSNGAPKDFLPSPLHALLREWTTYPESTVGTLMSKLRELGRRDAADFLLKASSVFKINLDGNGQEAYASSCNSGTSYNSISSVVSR

Take `Fc1ccc(CNc2ncnc3ccc(F)cc23)cc1` [5aa, 6-Fluoro-N-(4-fluorobenzyl)-4-Quinazolinamine]: the remaining activity at 10 µM at Blk(m) (setting [1]) stood at 91%; at GSK3β(h) (setting [1]), 85%; at DAPK1(h) (setting [1]) it was 102%; at CDKL4(h) (setting [1]) it was 73%; at PKG1α(h) (setting [1]), 91%; on Aurora-C(h) (setting [1]) it was 120%. Also, the remaining activity at 10 µM on NUAK2(h) (setting [1]) was determined as 121%.
As for `Fc1ccc(CCNc2ncnc3ccc(F)cc23)cc1` [5as, 6-Fluoro-N-[2-(4-Fluorophenyl)Ethyl]-4-Quinazolinamine], the remaining activity at 10 µM on Blk(m) (setting [2]) was 100%; on GSK3β(h) (setting [2]) it was 91%; at DAPK1(h) (setting [2]) it was 90%; on CDKL4(h) (setting [2]) it was 94%; at PKG1α(h) (setting [2]), 96%; on Aurora-C(h) (setting [2]), 102%. The remaining activity at 10 µM at NUAK2(h) (setting [2]) was found to be 112%.
For the molecule `Fc1ccc2ncnc(NCCc3ccc(Cl)cc3)c2c1` [5at, N-[2-(4-Chlorophenyl)Ethyl]-6-Fluoro-4-Quinazolinamine], the remaining activity at 10 µM on Blk(m) (setting [3]) turned out to be 98%; on GSK3β(h) (setting [3]) it was 97%; on DAPK1(h) (setting [3]), 89%; on CDKL4(h) (setting [3]) it was 92%; at PKG1α(h) (setting [3]) it was 93%; on Aurora-C(h) (setting [3]), 118%. Further, on NUAK2(h) (setting [3]), the remaining activity at 10 µM worked out at 117%.
As to `COc1ccc2ncnc(Nc3cccc(F)c3)c2c1` [5ay, N-(3-Fluorophenyl)-6-Methoxy-4-Quinazolinamine], the remaining activity at 10 µM is 102% at Blk(m) (setting [4]); 76% at GSK3β(h) (setting [4]); 95% on DAPK1(h) (setting [4]); 38% at CDKL4(h) (setting [4]); 95% at PKG1α(h) (setting [4]); 106% at Aurora-C(h) (setting [4]). For the same molecule, the remaining activity at 10 µM on NUAK2(h) (setting [4]) was 110%.
